These results are taken from PMC12062019, “Therapeutic effects of medicinal and food-based traditional herbal couples on type 2 diabetes mellitus based on pharmacodynamics and pharmacokinetics” (Frontiers in Pharmacology, 2025).

On the set-up of data set [1]: method as in Wang et al., 2020. Conditions: poor lipid and water solubility; ref Wang et al., 2020; cited from earlier work.
The subject of the next data set is Caco-2 cells. As to the kind of experiment: CCK-8 cell viability, Caco-2. Conditions: Caco-2, 24 h, concentrations up to 65 μg/mL.
Another data set relates to HT29 cells. Nature of the data set: CCK-8 cell viability, HT29. The conditions noted are these: HT29, 24 h, concentrations up to 65 μg/mL.
The next data set concerns gut flora of rats. As to the kind of experiment: 16s rDNA sequencing of gut flora of rats. Conditions: T2DM rats. The data set is classed as in vivo, rat.
A further data set deals with T2DM rats. As to the kind of experiment: Blood glucose and body weight in high-fat diet/STZ-induced T2DM rat model. It is filed as in vivo. The conditions noted are these: gavage once daily, weight first decreased then increased. The protocol:
The T2DM rat model was developed by intraperitoneal injection of streptozotocin (STZ). 60 male SD rats were acclimatised and reared for 1 week, then blood glucose and body weight were measured, and the rats were randomly divided into 10 in the normal group and 50 in the modelling group according to blood glucose and body weight. The T2DM rat was fed with high-fat chow for 4 weeks, and at the end of the 4 weeks, the rats were fasted for 12 h without food or water, and were injected with a one-time intraperitoneal injection of 35 mg/kg of 1% STZ solution. The normal group was fed with normal chow, and was given free access to drinking water, and was injected intraperitoneally with the same dose of citrate-sodium citrate buffer as that of the T2DM rat. The blood was collected from the tail vein for fasting blood glucose (FBG) measurement after 72 h. FBG of 16.7 mmol/L was considered successful in T2DM model replication. The T2DM rat model was successfully replicated.
For better drug delivery, we used a rotary evaporator to concentrate the CR-PLR decoction, CR decoction and PLR decotion to crude drug (1 g/mL), respectively. […]

Setting [2] is: Genus level, compared to the model group.

Experimental for Caco-2 cells: (§1) HT29 cells were grown in McCoy’s 5A medium containing 10% fetal bovine serum, 1% non-essential amino acids, and 1% penicillin-streptomycin, and other conditions were the same as those for Caco-2 cells culture, with the medium being changed every other day. […] They were incubated at 37°C for 24 h to allow cell adhesion. […] After this, the medium was removed and the cells were co-incubated with 10 μL of CCK-8 solution for 4 h. The absorbance values (OD) were measured at 450 nm using a SpectraMax 190 Enzyme Marker. The blank group consisted of wells that were not inoculated with cells, and the control group included wells containing cells but not exposed to the sample solution. Each group was performed in six replicates. Cell viability was calculated using the following formula: Cell activity%=Experimental Group OD value−Blank Group OD value/Control Group OD value−Blank Group OD value×100%
Experimental for HT29 cells: as §1

Regarding `O=c1c(-c2ccc(O)cc2)coc2c([C@@H]3O[C@H](CO)[C@@H](O)[C@H](O)[C@H]3O)c(O)ccc12` [PUR, Puerarin], the “BCS classification system class” value in data set [1] is listed as “class IV”. Further, the relative cell viability entry with Caco-2 cells and in the data set on HT29 cells was “above 90%” in each case.
With `CN(C)C(=N)N=C(N)N` [metformin], in the data set with gut flora of rats (Family level), the “percentage of Lachnospiraceae flora” value is given as 8.91%, the “percentage of Lactobacillaceae flora” value came to 8.88% and the “percentage of Ruminococcaceae flora” value was determined as 9.47%. In the data set with gut flora of rats (Genus level), the “percentage of Ligilactobacillus flora” value is 3.69% and the “percentage of lactobacilli flora” value was found to be 4.68%. Further, in the data set on gut flora of rats (setting [2]), the “percentage of Akkermansia flora” value is recorded as “increased” and the “percentage of Ruminococcus flora” value is “increased”. Also, in the data set on gut flora of rats (gut flora, Venn plot), the “number of independent OTUs” value worked out at 2051. The “weeks of administration after which body weight increased” value in the data set with T2DM rats was 4 weeks.
